ChEMBL document CHEMBL1201862, “PubChem BioAssay data set” (2004)
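Method: 48-hour compound exposure of cells in 96-well plates, five concentrations, linear interpolation of endpoints. Here, GI50 denotes the concentration required for 50% inhibition of growth.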 The source made the active and inactive calls. No stated cut-off is given here; in the data, active = GI50 up to about 1.1 µM and inactive = higher.

How the values were obtained:
Assay in all cases: inhibition of tumour cell growth, NCI panel, 48 h
OVCAR-3 = test system: OVCAR-3
MOLT-4 = test system: MOLT-4
RPMI-8226 = test system: RPMI-8226
SK-OV-3 = test system: SK-OV-3
M14 = test system: M14
NCI-H460 = test system: NCI-H460
SR = test system: SR
KM12 = test system: KM12
IGROV-1 = test system: IGROV-1
HOP-92 = test system: HOP-92
SNB-19 = test system: SNB-19
SK-MEL-28 = test system: SK-MEL-28
U-251 = test system: U-251
MDA-MB-231 = test system: MDA-MB-231
NCI-H522 = test system: NCI-H522
A549 = test system: A549
MDA-MB-435 = test system: MDA-MB-435
UACC-257 = test system: UACC-257
K562 = test system: K562
NCI-H226 = test system: NCI-H226

Measured: GI50

C=C1C(=O)OC2C1C(=O)C/C(C)=C/CCC1(C)OC21 (stereo unspecified)
inactive: OVCAR-3 15.1 µM | MOLT-4 17.3 µM | RPMI-8226 12.3 µM | SK-OV-3 29.6 µM | M14 15.6 µM | NCI-H460 21.2 µM | SR 3.33 µM | KM12 23.6 µM | IGROV-1 20.1 µM | HOP-92 15.2 µM | SNB-19 38.4 µM | SK-MEL-28 15.2 µM | U-251 19.5 µM | MDA-MB-231 20.8 µM | NCI-H522 3.63 µM | A549 19.4 µM | MDA-MB-435 15.4 µM | UACC-257 20.1 µM | K562 5.6 µM | NCI-H226 15.8 µM

O=C1c2cccnc2S(=O)(=O)N1c1ccc(Br)cc1
inactive: OVCAR-3 > 100 µM | MOLT-4 > 100 µM | RPMI-8226 91.6 µM | SK-OV-3 > 100 µM | M14 > 100 µM | SR 41.3 µM | KM12 > 100 µM | IGROV-1 > 100 µM | HOP-92 99.8 µM | SNB-19 75.7 µM | SK-MEL-28 > 100 µM | U-251 > 100 µM | MDA-MB-231 > 100 µM | NCI-H522 > 100 µM | A549 > 100 µM | MDA-MB-435 > 100 µM | UACC-257 > 100 µM | K562 41.6 µM | NCI-H226 > 100 µM

CN(C)c1ccc2c(c1)oc(=O)c1ccccc12
inactive: OVCAR-3 4.61 µM | MOLT-4 16.9 µM | RPMI-8226 3.59 µM | M14 13 µM | NCI-H460 10.4 µM | SR 3.2 µM | IGROV-1 13.7 µM | HOP-92 12.3 µM | SNB-19 14.3 µM | SK-MEL-28 17.5 µM | U-251 11.2 µM | MDA-MB-231 16.5 µM | NCI-H522 8.36 µM | A549 14.7 µM | MDA-MB-435 9.31 µM | UACC-257 14.4 µM | K562 4.52 µM | NCI-H226 15.3 µM

O=c1oc2ccccc2cc1-c1cn2c(n1)sc1ccccc12
inactive: OVCAR-3 > 100 µM | MOLT-4 > 100 µM | RPMI-8226 > 100 µM | SK-OV-3 > 100 µM | M14 > 100 µM | NCI-H460 > 100 µM | SR > 100 µM | KM12 93.5 µM | IGROV-1 > 100 µM | HOP-92 > 100 µM | SK-MEL-28 > 100 µM | U-251 83 µM | MDA-MB-231 > 100 µM | NCI-H522 26.1 µM | A549 > 100 µM | MDA-MB-435 29.3 µM | UACC-257 > 100 µM | K562 > 100 µM | NCI-H226 > 100 µM

Cc1cc2nc(C#N)c(N3CCN(c4ccc([N+](=O)[O-])cc4)CC3)nc2cc1C
inactive: OVCAR-3 > 100 µM | RPMI-8226 > 57.3 µM | SK-OV-3 > 69.5 µM | M14 > 95.9 µM | NCI-H460 > 85.9 µM | SR > 100 µM | KM12 > 100 µM | IGROV-1 > 100 µM | HOP-92 50.4 µM | SNB-19 67 µM | SK-MEL-28 > 100 µM | U-251 > 74.6 µM | MDA-MB-231 > 100 µM | NCI-H522 > 54.1 µM | A549 > 100 µM | MDA-MB-435 > 100 µM | UACC-257 > 100 µM | K562 > 100 µM | NCI-H226 > 100 µM

O=C1N=C(c2ccccc2)O/C1=C\c1ccccc1
inactive: OVCAR-3 > 100 µM | MOLT-4 > 100 µM | RPMI-8226 > 100 µM | SK-OV-3 > 100 µM | M14 > 100 µM | NCI-H460 > 100 µM | SR > 100 µM | KM12 > 100 µM | IGROV-1 > 100 µM | HOP-92 > 100 µM | SNB-19 > 100 µM | SK-MEL-28 > 100 µM | U-251 > 100 µM | MDA-MB-231 > 100 µM | NCI-H522 > 100 µM | A549 > 100 µM | MDA-MB-435 > 100 µM | UACC-257 > 100 µM | NCI-H226 > 100 µM

O=c1[nH]nc(Cc2ccc(Cl)cc2)n1/N=C/c1ccco1
inactive: OVCAR-3 > 100 µM | MOLT-4 > 100 µM | RPMI-8226 > 100 µM | SK-OV-3 80.2 µM | M14 > 100 µM | NCI-H460 > 100 µM | SR > 100 µM | KM12 > 100 µM | HOP-92 93.8 µM | SNB-19 25.4 µM | SK-MEL-28 > 100 µM | U-251 39.7 µM | MDA-MB-231 46.1 µM | NCI-H522 58.9 µM | A549 > 100 µM | MDA-MB-435 > 100 µM | UACC-257 > 100 µM | K562 > 100 µM | NCI-H226 84.5 µM

CCCC(=O)OCC1OC(n2cc(F)c(=O)[nH]c2=O)C(F)C1OC(=O)CCC (stereo unspecified)
inactive: OVCAR-3 41.5 µM | MOLT-4 > 100 µM | RPMI-8226 9.31 µM | SK-OV-3 > 100 µM | M14 36.3 µM | NCI-H460 3.78 µM | SR 9.73 µM | KM12 > 100 µM | IGROV-1 58.6 µM | HOP-92 17.4 µM | SK-MEL-28 > 100 µM | U-251 10.9 µM | MDA-MB-231 > 100 µM | NCI-H522 > 100 µM | A549 10.1 µM | MDA-MB-435 51.5 µM | UACC-257 85.7 µM | K562 56.1 µM | NCI-H226 > 100 µM

Cc1ccc(-n2nnc3c(NNc4ccccc4)n[nH]c(=O)c32)cc1
inactive: MOLT-4 44 µM | RPMI-8226 > 100 µM | M14 > 100 µM | NCI-H460 30.8 µM | SR > 100 µM | KM12 > 100 µM | HOP-92 23.1 µM | SNB-19 59 µM | SK-MEL-28 > 100 µM | U-251 52.1 µM | MDA-MB-231 96.8 µM | NCI-H522 30.2 µM | A549 55.6 µM | MDA-MB-435 74.6 µM | UACC-257 > 100 µM | K562 48.3 µM | NCI-H226 70 µM

NC(Cc1n[nH]c2ccccc12)C(=O)O (stereo unspecified)
inactive: OVCAR-3 > 100 µM | MOLT-4 > 100 µM | RPMI-8226 > 100 µM | SK-OV-3 > 100 µM | M14 > 100 µM | NCI-H460 > 100 µM | SR > 100 µM | KM12 > 100 µM | IGROV-1 > 100 µM | HOP-92 > 100 µM | SNB-19 > 100 µM | SK-MEL-28 > 100 µM | U-251 > 100 µM | MDA-MB-231 > 100 µM | NCI-H522 > 100 µM | A549 > 100 µM | MDA-MB-435 > 100 µM | UACC-257 > 100 µM | K562 > 100 µM | NCI-H226 > 100 µM

Cc1ccc2c(n1)NC(=O)C(Cc1ccccc1)(N=[N+]=[N-])C2=O (stereo unspecified)
inactive: OVCAR-3 > 100 µM | MOLT-4 > 100 µM | SK-OV-3 > 100 µM | M14 > 100 µM | NCI-H460 > 100 µM | SR > 100 µM | KM12 > 100 µM | IGROV-1 > 100 µM | HOP-92 > 100 µM | SNB-19 > 100 µM | SK-MEL-28 > 100 µM | U-251 > 100 µM | MDA-MB-231 > 100 µM | NCI-H522 > 100 µM | A549 > 100 µM | MDA-MB-435 > 100 µM | UACC-257 > 100 µM | K562 > 100 µM | NCI-H226 > 100 µM

N#Cc1c(-c2ccc([N+](=O)[O-])cc2)cc(-c2ccc(Nc3ccnc4cc(Cl)ccc34)cc2)[nH]c1=O
inactive: OVCAR-3 > 100 µM | MOLT-4 > 100 µM | RPMI-8226 > 100 µM | SK-OV-3 > 100 µM | M14 > 100 µM | NCI-H460 > 100 µM | SR > 100 µM | KM12 4.01 µM | IGROV-1 > 100 µM | HOP-92 > 100 µM | SNB-19 63.8 µM | SK-MEL-28 > 100 µM | U-251 > 100 µM | MDA-MB-231 > 100 µM | NCI-H522 > 100 µM | A549 > 100 µM | MDA-MB-435 > 100 µM | K562 > 100 µM | NCI-H226 > 100 µM

CCSC12CC3c4cccc5c4C(CN5C(=O)c4ccccc4)CC3(O1)N(C)C2=O (stereo unspecified)
inactive: OVCAR-3 40.8 µM | MOLT-4 22.2 µM | SK-OV-3 > 100 µM | M14 46.7 µM | NCI-H460 37.8 µM | SR 28.7 µM | KM12 45.4 µM | IGROV-1 31.3 µM | HOP-92 24.1 µM | SNB-19 87.3 µM | SK-MEL-28 48.4 µM | U-251 38.5 µM | MDA-MB-231 27.9 µM | NCI-H522 25.1 µM | A549 38.9 µM | MDA-MB-435 34.8 µM | UACC-257 29.4 µM | K562 33.3 µM | NCI-H226 39.6 µM

CC(=O)O[C@H]1CCc2c(cc(N)c3c2C(=O)C[C@]2(C)C([C@H](C)CCCC(C)C)CCC32C)C1(C)C (stereo partly specified)
inactive: OVCAR-3 > 100 µM | MOLT-4 > 100 µM | RPMI-8226 > 100 µM | SK-OV-3 > 100 µM | M14 > 100 µM | NCI-H460 > 100 µM | SR 33.9 µM | KM12 > 100 µM | IGROV-1 > 100 µM | HOP-92 > 100 µM | SNB-19 > 100 µM | SK-MEL-28 > 100 µM | U-251 > 100 µM | MDA-MB-231 > 100 µM | NCI-H522 > 100 µM | A549 > 100 µM | MDA-MB-435 86.7 µM | UACC-257 85.7 µM | K562 33.7 µM | NCI-H226 > 100 µM
